Measured values: patent publication US20060258716A1, “Methods and compositions for the treatment of helicobacter pylori-associated diseases using endoperoxide bridge-containing compounds” (priority 2003, published 2006)
≈ marks a conversion by molar mass, not a printed value.

Legend:
H. pylori [1] = assay: Anti-Helicobacter activity of artesunate after pre-incubation in simulated gastric fluid; assay type: cell-based; details: 1 mg/ml pre-incubated in SGF pH 1.2 at 37° C. up to 24 h, cultures then exposed 36 h, FIG. 6
Protocol: Artesunate (1 mg/ml) was pre-incubated in simulated gastric fluid (SGF, pH 1.2) or in bacterial broth medium (BBM, natural pH) at 37° C. for various time periods (1, 2, 4, 6, and 24 hours). After the pre-incubation, bacterial cultures (0.01 O.D) were exposed for 36 h to culture medium containing the pre-incubated artesunate. The effect of artesunate on bacterial growth was then determined by spectrophotometer.

H. pylori [2] = assay: Timed artesunate exposure and wash-out, regrowth of H. pylori cultures; assay type: cell-based; details: 0.625 or 6.25 mM, exposure 0.5-18 hours, then 36 hours artesunate-free medium, FIG. 5
Protocol: Artesunate (0.625 or 6.25 mM) was added to bacterial cultures (0.2 O.D.600) for various time points (0.5, 1, 2, 4, 6, and 18 hours). Artesunate was then washed out from the cultures by precipitation of the bacteria and washing in PBS, after which bacteria were re-suspended in a fresh artesunate-free medium. Bacteria were maintained in artesunate-free medium for additional 36 hours and bacterial growth was then determined by spectrophotometer.

[3] = test system: H. pylori bacterial strain SS1; assay: H. pylori-infected mice, colony forming units from homogenized stomach; assay type: in vivo; details: oral 50 mg/kg 3 times/day for 8 days, day 4 and 8, versus placebo, FIG. 7
Protocol: The effect of artesunate against H. pylori infection in vivo was tested in H. pylori-infected mice. Mice were infected by inoculation (×3/day) with suspension of 10^9 H. pylori bacterial strain SS1. Two weeks following the infection, mice were treated orally with 50 mg/kg artesunate 3 times/day for 8 days. The level of bacterial infection was determined by counting the number of colony forming units derived from the homogenized stomach on day 4 and 8 of the treatment.

[4] = test system: E. coli strains defective in DNA-gyrase enzyme; details: cited from earlier work
[5] = test system: wild type of E. coli having intact DNA gyrase genes; details: cited from earlier work
ulcerative lesion index = details: lesions produced by ethanol and indomethacin in rats; cited from earlier work
cancer cells = details: cited from earlier work
anaerobic bacteria = details: cited from earlier work
H. pylori [6] = assay: Minimal bactericidal concentration: treated H. pylori plated on solid medium, colonies counted; assay type: cell-based; details: no colony-forming units on solid medium
Protocol: To further determine the antibacterial effect of artemisinin, H. pylori maintained in the presence of various concentrations of artemisinin were plated on solid medium and the number of single colonies was monitored.

H. pylori [7] = assay: Combined effect of artemisinin and omeprazole on H. pylori growth; assay type: cell-based; details: 0.5 μg/ml artemisinin alone, 3 days
Protocol: In order to explore the possible synergism between artemisinin and a PPI, the growth of bacteria in the presence of artemisinin, omeprazole or both was examined. H. pylori bacteria were grown in the presence of 3-24 μg/ml omeprazole or 0.5-4 μg/ml of artemisinin. Bacterial cultures were incubated in micro-aerophilic conditions. The combined effect of artemisinin and omeprazole on bacterial growth was tested using a spectrophotometer after 3 days.

[8] = test system: Lactobacillus acidophilus; assay: MIC / growth of Lactobacillus acidophilus; assay type: cell-based
Protocol: (§1) The effect of artemisinin on the growth and viability of Lactobacillus acidophilus (L. acidophilus) that is part of the normal flora of the intestine was examined. L. acidophilus bacteria were grown with various concentration of artemisinin and its effect was determined.

P. acnes = assay: MBC against P. acnes; assay type: cell-based
Protocol: (§2) To determine whether the effect of artemisinin is specific to H. pylori, the ability of artemisinin to inhibit the growth of E. coli and P. acnes was tested. In contrary to H. pylori, which is a microaerophilic bacterium, E. coli is an aerobic intestinal bacterium, and P. acnes is an anaerobic dermal bacterium. These bacteria were exposed to various concentrations of artemisinin, and MIC and MBC values were determined.

[9] = test system: Lactobacillus acidophilus; assay: MBC against Lactobacillus acidophilus; assay type: cell-based; details: L. acidophilus
Protocol: as §1

[10] = test system: H. pylori exhibiting resistance to clarithromycin (CLR) and metronoidazole; assay: Growth of clarithromycin- and metronidazole-resistant H. pylori strains; assay type: cell-based; details: 2.5-10 μM artemisinin, 3 days, micro-aerophilic conditions, FIG. 2
Protocol: Unsuccessful therapy in patients infected with H. pylori is frequently correlated to clarithromycin and metronidazole resistance. […] Bacterial cultures were incubated in micro-aerophilic conditions. The effect of clarithromycin or artemisinin on bacterial growth was tested using a spectrophotometer after 3 days.

H. pylori [11] = assay: Growth inhibition of H. pylori (MIC), growth monitored by spectrophotometer; assay type: cell-based; details: for minimal inhibitory concentration (MIC): Example 4, FIG. 4
Protocol: To test the effect of artemisinin on the growth of H. pylori, freshly prepared bacteria were exposed to various concentrations of artemisinin. Bacteria were grown for fixed incubation times and their growth levels were monitored using a spectrophotometer. The growth of treated bacteria was compared to that of non-treated bacteria.
To test the effectivity of artemisinin derivatives on the growth of H. pylori, freshly prepared bacteria were exposed to various concentrations of artemisinin derivatives. Bacteria were grown for fixed incubation times and their growth levels were monitored using a spectrophotometer. The growth of treated bacteria was compared to that of non-treated bacteria.

E. coli = assay: MBC against E. coli; assay type: cell-based
Protocol: as §2

Compound: C[C@H]1[C@H](OC(=O)CCC(=O)O)O[C@@H]2O[C@@]3(C)CC[C@H]4[C@H](C)CC[C@@H]1[C@@]24OO3 [artesunate]
- Anti-Helicobacter activity after pre-incubation in low pH (H. pylori [1]): preserved
- Bacterial growth after wash-out of artesunate (H. pylori [2]): irreversible bacterial eradication
- Number of colony forming units from homogenized stomach [3]: efficiently reduced the number of colony forming units

Compound: CCO[C@@H]1O[C@@H]2O[C@]3(C)CC[C@H]4[C@H](C)CC[C@@H]([C@H]1C)[C@@]24OO3 [α-arteether]
- Growth inhibition [4]: inhibits the growth
- Sensitivity [5]: not sensitive

Compound: C[C@@H]1CC[C@H]2[C@@H](C)C(=O)O[C@@H]3O[C@@]4(C)CC[C@@H]1[C@]32O4 [deoxyartemisinin]
- Gastric cytoprotection (ulcerative lesion index) (ulcerative lesion index): provided gastric cytoprotection

Compound: C[C@@H]1CC[C@H]2[C@@H](C)C(=O)O[C@@H]3O[C@@]4(C)CC[C@@H]1[C@]32OO4 [artemisinin]
- Concentration range toxic to cancer cells in vitro (cancer cells): 20 to 180 µM
- Anti-microbial activity (anaerobic bacteria): possesses an anti-microbial activity
- MBC (minimal bactericidal concentration) (H. pylori [6]): 125 to 250 µM
- Bacterial growth, artemisinin alone (H. pylori [7]): not effective alone
- MIC (minimal inhibitory concentration) ([8]; L. acidophilus): >5000 µM
- Effect on growth of L. acidophilus ([8]; any used concentration below 5 mg/ml): did not affect the growth
- MBC (minimal bactericidal concentration) (P. acnes): >5000 µM
- MBC (minimal bactericidal concentration) [9]: >5000 µM
- Sensitivity of clarithromycin- and metronidazole-resistant H. pylori strains [10]: significant sensitivity
- MIC (minimal inhibitory concentration) (H. pylori [11]; Example 1, Table 1): 2.5 µM (≈ 0.706 µg/mL)
- MBC (minimal bactericidal concentration) (E. coli): >5000 µM

Compound: dihydro-epideoxyarteannuin B
- Gastric cytoprotection (ulcerative lesion index) (ulcerative lesion index): provided gastric cytoprotection

Compound: CO[C@H]1O[C@@H]2O[C@@]3(C)CC[C@H]4[C@H](C)CC[C@@H]([C@H]1C)[C@@]24OO3 [artemether]
- minimal inhibitory concentration (MIC) (H. pylori [11]): 0.3 to 0.6 µM

Compound: CCO[C@H]1O[C@@H]2O[C@@]3(C)CC[C@H]4[C@H](C)CC[C@@H]([C@H]1C)[C@@]24OO3 [arteether]
- minimal inhibitory concentration (MIC) (H. pylori [11]): 0.15 to 0.3 µM
